# Measurements reported in patent US4716228A, “Condensed 2-substituted thiazole derivatives” (Farmitalia Carlo Erba S.p.A., priority 1985, dated 1987).
# Assays:
# [1] = tested on: acetyl salicylic acid (ASA) induced gastric ulcers; assay: inhibition of acetyl salicylic acid (ASA) induced gastric ulcers in rats; assay type: in vivo; conditions: po; rat, p.o.; read-out: ASA Test ED50
# Description: The activity of these compounds was assessed in rats in anti-ulcer and anti-secretory tests. The anti-ulcerogenic activity of the compounds of the invention is shown, for example, by the fact that they are active in the test of the inhibition of acetyl salicylic acid (ASA) induced gastric ulcers in rats (M. Hemmati et al., Pharmacology, 9, 374, 1973).
# histamine H2-receptor = histamine H2-receptor antagonist activity in vitro on the guinea pig right atrium; assay type: cell-based; conditions: screening dose 1.10^-5 M
# Description: The compounds of the invention were assayed for histamine H2 -receptor antagonist activity in vitro on the guinea pig right atrium. Male guinea pigs were killed by a blow on the head and the heart was quickly excised and placed in oxygenated Ringer Locke solution of the following composition (g/l): NaCl 9, KCl 0.42, CaCl2 0.24, NaHCO3 0.5, Glucose 1. Atria were dissected away from the rest of the heart, freed from connective tissue, suspended in 20 ml organ bath containing Ringer Locke solution thermoregulated at 37° C., and carboxygenated with 95% O2 and 5% CO2. Atria spontaneously beating were allowed to adjust to the bath conditions for at least 30 minutes prior to the experiment. Histamine was added to the bath in cumulative fashion starting from 3×10^-7 M till 1×10^-4 M. The histamine-induced increase in atrial rate was allowed to plateau before the next successive concentration was added. After washing and waiting for the recovery of atria rate, compounds were added 5 minutes before repeating the cumulative dose response curve with histamine.
# A compound is considered an H2 -receptor antagonist if it is able to shift the dose response curve of histamine to the right of the concentration <1×10^-5 M.
# [2] = tested on: duodenal ulcers, induced by cysteamine; assay: inhibition of duodenal ulcers induced in rats by cysteamine; assay type: in vivo; conditions: po; rat, p.o.; inhibition of ulcer index; read-out: Cysteamine Test ED50
# Description: The inhibition of duodenal ulcers, induced in rats by cysteamine, was evaluated for the test of compounds as percentage inhibition of ucler index [sum of the lesioned areas per rat (mm^2)] according to the method of Fuji Y. et at, Jap. J. Pharm. 25, 663, 1975.
# stress ulcers = assay: inhibition of stress ulcers in rats (restraint in water at 23° C. for 4 hours); assay type: in vivo; conditions: po, rat, p.o., read-out: Stress Test ED50
# Description: The anti-ulcerogenic activity of the compounds of the invention is shown also by the fact that they are active in the test of the inhibition of stress ulcers in rats (restraint in water at 23° C. for 4 hours), according to the method of M. Usardi et al. (Prostaglandins, 8, 43, 1974).
# gastric secretion = assay: gastric anti-secretory activity, pylorus ligature technique; assay type: in vivo, rats; conditions: rat, i.d., read-out: Antisecretory activ. test ED50
# Description: The gastric anti-secretory activity of the compounds of the invention was evaluated in rats by the pylorus ligature technique (H. Shay et al., Gastroenterology 5, 43, 1945).
structure (smiles),measurement,setting,value
"CC(C)NC(=O)N1CCc2nc(N=C(N)N)sc2C1 [Example 1, 2-Guanidino-5-isopropylcarbamoyl-4,5,6,7-teteahydrothiazolo-[5,4-c]pyridine]",ED50,[1],0.017 mg/kg
same,Anti-H2 activity test,histamine H2-receptor,active
same,ED50,[2],0.4 mg/kg
same,ED50,stress ulcers,2.9 mg/kg
same,ED50,gastric secretion,0.33 mg/kg
